Data: article PMC6811774, “Potent, selective, and subunit‐dependent activation of TRPC5 channels by a xanthine derivative” (British Journal of Pharmacology, 2019)

Target: T1, TRPC3 (Homo sapiens, UniProt Q13507)
T1 construct: expressed in transfected cells; host or cells: WT HEK 293 (transient, jetPRIME)
T1 sequence (Q13507 1-921): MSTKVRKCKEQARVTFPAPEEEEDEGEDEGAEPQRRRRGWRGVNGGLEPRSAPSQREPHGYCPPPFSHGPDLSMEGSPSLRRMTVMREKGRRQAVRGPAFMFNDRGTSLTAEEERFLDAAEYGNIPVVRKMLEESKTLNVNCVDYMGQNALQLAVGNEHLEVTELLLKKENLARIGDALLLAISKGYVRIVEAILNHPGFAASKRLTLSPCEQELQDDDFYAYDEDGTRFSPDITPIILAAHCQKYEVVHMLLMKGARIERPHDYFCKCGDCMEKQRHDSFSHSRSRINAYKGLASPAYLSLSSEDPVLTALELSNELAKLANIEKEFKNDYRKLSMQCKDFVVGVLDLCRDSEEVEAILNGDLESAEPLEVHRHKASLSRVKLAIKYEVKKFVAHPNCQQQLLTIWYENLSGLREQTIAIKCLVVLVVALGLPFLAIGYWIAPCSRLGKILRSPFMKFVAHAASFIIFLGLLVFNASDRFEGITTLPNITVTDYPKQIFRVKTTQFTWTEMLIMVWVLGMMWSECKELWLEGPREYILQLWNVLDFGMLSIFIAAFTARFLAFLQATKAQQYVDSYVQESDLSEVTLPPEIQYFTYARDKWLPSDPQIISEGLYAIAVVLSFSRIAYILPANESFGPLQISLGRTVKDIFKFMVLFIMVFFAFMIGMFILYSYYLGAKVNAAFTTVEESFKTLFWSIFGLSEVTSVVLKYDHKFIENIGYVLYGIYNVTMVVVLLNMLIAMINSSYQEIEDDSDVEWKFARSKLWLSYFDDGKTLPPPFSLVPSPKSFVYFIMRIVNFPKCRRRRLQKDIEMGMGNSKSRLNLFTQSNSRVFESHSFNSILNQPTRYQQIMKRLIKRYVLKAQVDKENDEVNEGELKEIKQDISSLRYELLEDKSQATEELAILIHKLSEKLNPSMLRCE
Experiment: [Ca2+]i selectivity assay, WT HEK 293 cells transiently transfected with hTRPC3, OAG activation
Type: cell-based
Conditions: 300 nM AM237; 100 μM OAG

With `Cn1c(=O)n(CCCO)c(=O)c2c1nc(Oc1ccc(Cl)c(OC(F)(F)F)c1)n2Cc1ccc(Cl)cc1` [AM237] as the compound, how does the “Activation or inhibition of TRPC3” value read?
The value was “no activation or inhibition”.
